# Results as given in patent US20240122932A1, “Methods of Treating B-Cell Malignancy Using Bcl-2 Inhibitor” (BeiGene Switzerland GmbH, priority 2021, published 2024).
# Tested on: JeKo-1 human mantle cell lymphoma (MCL) subcutaneous xenograft
# Assay: JeKo-1 human MCL subcutaneous xenograft model, Bcl-2 inhibitor with BTK inhibitor
# Assay type: in vivo, NCG mice
# Details: 20 mpk p.o. BID
# Experimental: JeKo-1 cells were maintained as suspension cell cultures at 37° C. in a 5% CO2 atmosphere. Five to six-week-old female NCG mice were purchased from Gempharmatech of Information Technology Center. All animals were maintained under specific pathogen free (SPF) “full barrier” condition with free access to food and water. […] Mice were fed with complete granulated feed with Co60 radiosterilization (Beijing Ke Ao Xie Li Feed Co., Ltd.). All experiments were carried out in accordance with BeiGene's IACUC.
# Re-suspended cells were placed on ice prior to inoculation. […] Each animal was injected subcutaneously with 1×10^7 cells in 200 μL of cell suspension in the right front flank via a 26-gauge needle. After implantation, primary tumor volume was measured in two dimensions using a caliper.
# Transplanted animals were randomized into 8 groups with 10 mice per group on day 0 according to transplantation sequence and body weight. […] Treatments were administered by oral gavage (p.o.) in a volume of 10 mL/kg body weight. Body weight was assessed immediately before dosing and volume dosed was adjusted accordingly.
# Individual body weight was recorded twice weekly, with mice being monitored daily for clinical signs of toxicity for the duration of the study. Mice were euthanized using carbon dioxide when their tumor volume reached 2,000 mm^3, the tumor was ulcerated, or body weight loss exceeded 20%.
# Tumor volume (TV) was calculated using the formula: TV=0.5×(a×b^2) where a and b are the long and short diameters of the tumor, respectively. […] (treated t=treated tumor volume at time t, vehicle t=vehicle tumor volume at time t)
smiles,measurement,setting,value
"C=CC(=O)N1CCC([C@@H]2CCNc3c(C(N)=O)c(-c4ccc(Oc5ccccc5)cc4)nn32)CC1 [Compound B, (S)-7-(1-acryloylpiperidin-4-yl)-2-(4-phenoxyphenyl)-4,5,6,7-tetra-hydropyrazolo[1,5-a]pyrimidine-3-carboxamide, reference compound]",Mean TV (D 21) (mm^3 ± SEM),,799.8 ± 73.2 mm^3
same,TGI (%),"day 21, 20 mg/kg",56%
